We go through 8 compounds from patent US12304898B2, “Quinolyl-containing compound and pharmaceutical composition, and use thereof” (PrimeGene (Beijing) Co., Ltd., priority 2019, dated 2025).

The target of one series is HDAC6 (Homo sapiens (Human), UniProt Q9UBN7). In words: HDAC6 fluorescence analysis, inhibition of HDAC6 activity. To be noted: HDAC6 0.3 nM solution, substrate 15 μM, fluorescence readout; read-out: IC50, inhibitory effect on HDAC6. In kind it is biochemical. Here is the method:
HDAC6 fluorescence analysis method was used to detect the inhibitory effect of the compounds on the activity of HDAC6. The specific operation is as follows:
Prepare a 10 mM stock solution of a compound with DMSO. Take 10 μl of stock solution and dilute with 90 μl DMSO to become a 1 mM working solution. […] Add 3 μl of each concentration to 197 μl reaction buffer (20 mM Hepes pH 8.0, 137 mM NaCl, 2.7 mM KCl, 1 mM MgCl2, 0.05% BSA, 0.5 mM TCEP), mix well and add 10 μl to a 384-well plate. In the final reaction system, the concentrations of the compound were 10 μM to 0.51 nM. Duplicate, and add 10 μl 3XHDAC solution (BPS, Cat. 50006, 0.3 nM) to each well, followed by incubating at 23° C. for 20 minutes. Then, add 3× substrate solution (Anaspec, Cat. 61855, 15 μM), centrifuge to mix, and incubate at 23° C. for 90 minutes. Add 30 μl trypsin/SAHA mixture (20 mM Hepes pH 8.0, 100 mM NaCl, 10 mM SAHA, 0.01 mg/ml trypsin), incubate at 23° C. for 60 minutes to terminate the reaction. Finally, read fluorescence data by Envision (390 nm excitation, 460 nm emission). […] Finally, analyze the data by XLfit5 software and calculate the IC50 value of the compound. Vorinostat (SAHA) was a positive reference compound.

A short description of series [1]: Pharmacokinetic experiment in rats after intragastric administration. In kind it is in vivo. To be noted: rat, po, female SD rats, 10 mg/kg, plasma. The procedure:
The female SD rats were divided into groups, 3 rats in each group, and the example compounds 10, 12, 24, 57, 61, 89, 90, 93, 94, 96 (10 mg/kg) were administered by intragastric administration. Fasting overnight before administration, and the fasting time was from 10 hours before administration to 4 hours after administration. Blood was collected at 0.25, 0.5, 1, 2, 4, 8 and 24 hours after administration. Small animal anesthesia machine was used for isoflurane anesthesia. After that, 0.3 mL of whole blood was collected from the fundus venous plexus and placed in a heparin anticoagulation tube. The sample was centrifuged at 4° C., 4000 rpm, for 5 minutes, and the plasma was transferred to a centrifuge tube, and stored at −80° C. until analysis. The plasma sample was extracted by protein precipitation method, and the extract was processed and analyzed by LC/MS/MS.

Another series has as its target VEGFR2 (KDR) (Homo sapiens (Human), UniProt P35968). In words: VEGFR2 (KDR) mobility shift assay. In kind it is biochemical. To be noted: VEGFR2 0.5 nM, ATP 95 μM, read-out: IC50, inhibitory effect on kinase VEGFR2. Here is the method: Detect compounds on VEGFR2 (KDR) by mobility shift assay. The initial test concentration of a compound was 1000 nM, 3 times dilution, 10 concentrations, and detection in duplicate. Nintedanib (Selleckchem, Cat. S1010) was used as the positive control compound. The operation method was briefly described as follows: kinase VEGFR2 (Carna, Cat. 08-191) at the final concentration of 0.5 nM and the test compound were mixed in the Optiplate-384F well plate and incubated for 10 minutes at room temperature. Then, ATP at a final concentration of 95 μM and 3 μM Kinase substrate 22 (Gill Biochemical (glbiochem), Cat. 112393) were added. After mixing, react at room temperature for 30 minutes. Add stop detection solution to terminate the reaction and read the conversion rate with Caliper EZ ReaderlI.
Wherein, Conversion %_sample refers to the conversion rate reading of the sample; Conversion %_min: the average value of the negative control wells, which represents the conversion rate readings of the wells without enzyme activity; Conversion %_max: the average value of the positive control wells, represents the conversion rate readings of the wells without compound inhibition.
Fitting the dose-response curve: Take the log of the concentration as the X-axis, and the percentage of inhibition rate as the Y-axis. The dose response curve was fitted by the analysis software GraphPad Prism 5 with log(inhibitor) vs. response—Variable slope to obtain the inhibitory activity (IC50) of each compound.

VEGFR2 (KDR), sequence (P35968 790-1356): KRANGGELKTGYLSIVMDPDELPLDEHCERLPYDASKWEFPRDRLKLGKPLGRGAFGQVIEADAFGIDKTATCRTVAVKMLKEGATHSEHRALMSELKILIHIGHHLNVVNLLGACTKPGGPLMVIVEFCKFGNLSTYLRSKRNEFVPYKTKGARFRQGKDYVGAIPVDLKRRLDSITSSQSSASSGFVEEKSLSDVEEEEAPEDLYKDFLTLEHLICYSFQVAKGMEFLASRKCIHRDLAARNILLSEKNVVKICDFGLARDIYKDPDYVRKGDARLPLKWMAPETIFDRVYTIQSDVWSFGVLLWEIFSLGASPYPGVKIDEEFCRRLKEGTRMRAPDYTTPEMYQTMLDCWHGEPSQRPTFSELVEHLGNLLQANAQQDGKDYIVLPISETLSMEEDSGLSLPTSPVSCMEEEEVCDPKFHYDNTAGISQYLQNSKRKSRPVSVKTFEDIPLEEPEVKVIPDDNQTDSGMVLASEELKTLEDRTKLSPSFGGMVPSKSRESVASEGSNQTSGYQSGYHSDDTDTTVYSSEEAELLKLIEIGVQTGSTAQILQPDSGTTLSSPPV
HDAC6, sequence (Q9UBN7 whole entry): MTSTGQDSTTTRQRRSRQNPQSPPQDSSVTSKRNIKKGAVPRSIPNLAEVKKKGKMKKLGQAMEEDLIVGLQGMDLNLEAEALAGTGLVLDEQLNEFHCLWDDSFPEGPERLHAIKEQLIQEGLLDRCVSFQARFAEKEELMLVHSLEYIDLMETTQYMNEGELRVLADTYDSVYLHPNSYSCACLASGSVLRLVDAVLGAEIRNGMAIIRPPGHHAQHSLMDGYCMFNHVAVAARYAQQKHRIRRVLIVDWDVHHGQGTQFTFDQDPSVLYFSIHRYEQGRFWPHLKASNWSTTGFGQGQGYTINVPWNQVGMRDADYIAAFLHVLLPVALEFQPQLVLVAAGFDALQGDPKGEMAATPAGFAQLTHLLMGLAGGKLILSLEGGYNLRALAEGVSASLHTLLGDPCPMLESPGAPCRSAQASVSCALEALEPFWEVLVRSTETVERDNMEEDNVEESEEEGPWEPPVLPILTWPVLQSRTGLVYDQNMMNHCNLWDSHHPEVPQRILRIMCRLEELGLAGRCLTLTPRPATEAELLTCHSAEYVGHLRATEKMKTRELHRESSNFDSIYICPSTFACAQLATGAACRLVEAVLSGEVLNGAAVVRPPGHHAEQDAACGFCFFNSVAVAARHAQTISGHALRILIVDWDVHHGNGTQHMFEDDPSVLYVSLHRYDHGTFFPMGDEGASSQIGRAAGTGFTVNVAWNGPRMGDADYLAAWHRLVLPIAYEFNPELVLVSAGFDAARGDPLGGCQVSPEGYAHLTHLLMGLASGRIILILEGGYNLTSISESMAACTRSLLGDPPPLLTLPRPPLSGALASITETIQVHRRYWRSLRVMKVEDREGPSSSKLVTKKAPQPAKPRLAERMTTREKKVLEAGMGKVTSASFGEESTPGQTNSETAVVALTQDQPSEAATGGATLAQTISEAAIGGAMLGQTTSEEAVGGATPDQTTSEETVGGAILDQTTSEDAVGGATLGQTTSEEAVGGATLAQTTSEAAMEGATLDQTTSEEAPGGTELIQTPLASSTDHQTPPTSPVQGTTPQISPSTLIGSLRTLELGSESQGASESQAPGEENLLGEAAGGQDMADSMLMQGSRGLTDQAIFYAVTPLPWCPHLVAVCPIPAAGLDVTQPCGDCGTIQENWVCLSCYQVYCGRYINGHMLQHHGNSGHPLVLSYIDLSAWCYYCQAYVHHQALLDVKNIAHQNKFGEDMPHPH

For the compound `COc1cc2nccc(Oc3ccc(NC(=O)C4(C(=O)Nc5ccc(F)cc5)CC4)cc3)c2cc1OC` [Cabozantinib, reference compound], on HDAC6, the IC50 is above 10 µM.

For `COc1cc2c(Oc3ccc(NC(=O)C4(C(=O)Nc5ccc(F)cc5)CC4)cc3F)ccnc2cc1OCCCCCCCSC(C)=O` [Example 12, S-(7-((4-(2-fluoro-4-(1-((4-fluorophenyl)aminoformyl)cyclopropane-1-carboxamido)phenoxy)-6-methoxyquinolin-7-yl)oxy)heptyl)-acetylthioester], in series [1], the AUC(0-inf) worked out at 1.87 µg·h/mL, the peak level (Cmax) was 0.946 µg/mL, the Tmax came out at 1 h and the half-life was 3 h. Also, the IC50 on HDAC6 is 0.0678 µM.

`COc1cc2c(Oc3ccc(NC(=O)C4(C(=O)Nc5ccc(F)cc5)CC4)cc3F)ccnc2cc1OCCCCCCCS` [Example 13, N-(3-fluoro-4-((7-(7-mercaptoheptyloxy)-6-methoxyquinolin-4-yl)oxy)phenyl)-N-(4-fluorophenyl) cyclopropane-1,1-diformamide]: at HDAC6, the IC50 worked out at 0.018 µM.

Take `COc1cc2c(Oc3ccc(NC(=O)C4(C(=O)Nc5ccc(F)cc5)CC4)cc3F)ccnc2cc1OC/C=C/CCCCS` [Example 25, (E)-N-(3-fluoro-4-((7-((7-mercaptoheptyl-2-en-1-yl)oxy)-6-methoxyquinolin-4-yl)oxy)phenyl)-N-(4-fluorophenyl)cyclopropane-1,1-diformamide]: the figures for the IC50 on HDAC6 and on VEGFR2 (KDR) were 0.0348 µM and 0.079 µM, respectively.

Regarding `COc1cc2c(Oc3ccc(NC(=O)C4(C(=O)Nc5ccc(F)cc5)CC4)cc3F)ccnc2cc1OCCCCNC(=O)CS` [Example 62], the IC50 at HDAC6 stood at 0.0163 µM; at VEGFR2 (KDR), 0.017 µM.

`COc1cc2c(Oc3ccc(NC(=O)C4(C(=O)Nc5ccc(F)cc5)CC4)cc3F)ccnc2cc1OCCCCCCNC(=O)CS` [Example 64]: the IC50 came to 0.0288 µM on HDAC6 and 0.051 µM at VEGFR2 (KDR).

Take `CC(=O)SCC(=O)NCCCCCOc1cc2nccc(Oc3ccc(NC(=O)NC4CC4)c(Cl)c3)c2cc1C(N)=O` [Example 69, S-(2-((5-((6-carbamoyl-4-(3-chloro-4-(3-cyclopropylurea)phenoxy)quinolin-7-yl)oxy)pentyl)amino)-2-oxo-ethyl)thioacetate]: the IC50 was found to be 0.00894 µM on HDAC6 and 0.00096 µM at VEGFR2 (KDR).

For the compound `CC(=O)SCC(=O)NCCCCCOc1cc2nccc(Oc3ccc(NC(=O)C4(C(=O)Nc5ccc(F)cc5)CC4)cc3F)c2cc1C(N)=O` [Example 71, S-(2-((5-((6-carbamoyl-4-(2-fluoro-4-(1-((4-fluorophenyl)carbamoyl)cyclopropane-1-methylamido)phenoxy)quinolin-7-yl)oxy)pentyl)amino)-2-oxo-ethyl)thioacetate], the figures for the IC50 at HDAC6 and on VEGFR2 (KDR) were 0.027 µM and 0.0046 µM, respectively.
